Measured values: PubChem BioAssay AID330 (DTP/NCI, 2004)
Where “and” joins values, the source holds several entries; their conditions need not be identical. Identical values can stand only once. Toxic doses and inconclusive results are not listed. Rule for the calls: active = survival T/C of 150% or more; inactive = T/C below 125% in these data.

Test system: P388 leukemia ip, CD2F1 mice, survival T/C
Test: NCI In Vivo Anticancer Drug Screen. Data for tumor model P388 Leukemia (intraperitoneal) in CD2F1 (CDF1) mice
Settings: endpoint: median survival time, higher = longer survival
Summary of the method: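 Mice carrying the transplanted tumor received test compound or vehicle. Survival was recorded in each group, and the value is the treated-group measurement divided by that of the vehicle-treated control group.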

[1] = dose: 100.0 mg/kg/injection, schedule: Q01DX001 (ip), vehicle: saline with Tween-80
[2] = dose: 200.0 mg/kg/injection, schedule: Q01DX001 (ip), vehicle: saline with Tween-80
[3] = dose: 400.0 mg/kg/injection, schedule: Q01DX001 (ip), vehicle: saline with Tween-80
[4] = dose: 50.0 mg/kg/injection, schedule: Q01DX005 (ip), vehicle: saline with Tween-80
[5] = dose: 100.0 mg/kg/injection, schedule: Q01DX005 (ip), vehicle: saline with Tween-80
[6] = dose: 200.0 mg/kg/injection, schedule: Q01DX005 (ip), vehicle: saline with Tween-80
[7] = dose: 100.0 mg/kg/injection, schedule: Q01DX009 (ip), vehicle: saline with Tween-80
[8] = dose: 200.0 mg/kg/injection, schedule: Q01DX009 (ip), vehicle: saline with Tween-80
[9] = dose: 12.5 mg/kg/injection, schedule: Q01DX009 (ip), vehicle: Klucel (hydroxypropylcellulose) (HPC)
[10] = dose: 25.0 mg/kg/injection, schedule: Q01DX009 (ip), vehicle: Klucel (hydroxypropylcellulose) (HPC)
[11] = dose: 100.0 mg/kg/injection, schedule: Q01DX009 (ip), vehicle: saline
[12] = dose: 200.0 mg/kg/injection, schedule: Q01DX009 (ip), vehicle: saline

Measured: T/C

CN=C(N)N/N=C(\c1ccccc1)c1ccc(Br)cc1
inactive: dose: 3.12 mg/kg/injection, schedule: Q04DX002 (ip), vehicle: saline with Tween-80 101 % of control | dose: 6.25 mg/kg/injection, schedule: Q04DX002 (ip), vehicle: saline with Tween-80 108 % of control and 96 % of control

C[Si](C)(C)N([Si](C)(C)C)[Si](C)(C)C
inactive: dose: 50.0 mg/kg/injection, schedule: Q01DX009 (ip), vehicle: other 97 % of control | dose: 100.0 mg/kg/injection, schedule: Q01DX009 (ip), vehicle: other 98 % of control | dose: 200.0 mg/kg/injection, schedule: Q01DX009 (ip), vehicle: other 100 % of control

Oc1ccc2ccccc2c1/C=N/c1nc(-c2ccc(Cl)cc2)cs1
inactive: [1] 89 % of control | [2] 90 % of control | [3] 92 % of control

Cc1nc(N)[nH]c(=O)c1CCc1ccccc1
inactive: dose: 60.0 mg/kg/injection, schedule: Q01DX005 (ip), vehicle: saline 97 % of control | dose: 120.0 mg/kg/injection, schedule: Q01DX005 (ip), vehicle: saline 99 % of control | dose: 240.0 mg/kg/injection, schedule: Q01DX005 (ip), vehicle: saline 98 % of control

[Se]=P(N1CCOCC1)(N1CCOCC1)N1CCOCC1
inactive: dose: 13.75 mg/kg/injection, schedule: Q01DX001 (ip), vehicle: Klucel (hydroxypropylcellulose) (HPC) 101 % of control | dose: 27.5 mg/kg/injection, schedule: Q01DX001 (ip), vehicle: Klucel (hydroxypropylcellulose) (HPC) 104 % of control

Nc1nc(N)nc(-c2ccccc2)n1
inactive: dose: 50.0 mg/kg/injection, schedule: Q01DX009 (ip), vehicle: suspension in saline 106 % of control | dose: 100.0 mg/kg/injection, schedule: Q01DX009 (ip), vehicle: suspension in saline 99 % of control | dose: 200.0 mg/kg/injection, schedule: Q01DX009 (ip), vehicle: suspension in saline 106 % of control

CC(=O)OC1COC2OC1C(OC(C)=O)C2OC(C)=O (configuration not stated)
inactive: [4] 101 % of control | [5] 104 % of control | [6] 101 % of control

COc1ccc(CNCC#N)c(OC)c1
inactive: [4] 97 % of control | [5] 100 % of control

CCOc1c(N=Nc2ccc(O)cc2)c(C)nn1C(N)=S
inactive: dose: 15.0 mg/kg/injection, schedule: Q01DX005 (ip), vehicle: Klucel + Tween-80 99 % of control | dose: 30.0 mg/kg/injection, schedule: Q01DX005 (ip), vehicle: Klucel + Tween-80 101 % of control

COc1ccc2c(c1)OC/C(=C\c1ccc([N+](=O)[O-])o1)C2=O
inactive: [7] 91 % of control | [8] 86 % of control | dose: 400.0 mg/kg/injection, schedule: Q01DX009 (ip), vehicle: saline with Tween-80 92 % of control

N#CCc1ccc([N+](=O)[O-])cc1C(=O)O
inactive: [4] 104 % of control | [5] 104 % of control | [6] 101 % of control

O=P(c1ccccc1)(c1ccccc1)c1ccccc1.O=P(c1ccccc1)(c1ccccc1)c1ccccc1.O=S(=O)(O)O.[Ni]
inactive: dose: 6.25 mg/kg/injection, schedule: Q01DX009 (ip), vehicle: Klucel (hydroxypropylcellulose) (HPC) 99 % of control | [9] 111 % of control | [10] 107 % of control

O=C(O)c1ccc(=O)[nH]c1
inactive: [11] 101 % of control and 107 % of control | [12] 110 % of control and 118 % of control | dose: 400.0 mg/kg/injection, schedule: Q01DX009 (ip), vehicle: saline 100 % of control and 109 % of control | dose: 600.0 mg/kg/injection, schedule: Q01DX009 (ip), vehicle: saline 104 % of control and 106 % of control

COc1cc(-c2cnc3c(n2)c(=O)[nH]c(=O)n3C)ccc1O
inactive: dose: 100.0 mg/kg/injection, schedule: Q04DX002 (ip), vehicle: saline 104 % of control | dose: 200.0 mg/kg/injection, schedule: Q04DX002 (ip), vehicle: saline 103 % of control | dose: 400.0 mg/kg/injection, schedule: Q04DX002 (ip), vehicle: saline 95 % of control

Cc1cc(OCC(=O)N/N=C/c2ccc(N(CCCl)CCCl)cc2)c2ccc(Cl)cc2n1
inactive: dose: 50.0 mg/kg/injection, schedule: Q01DX009 (ip), vehicle: saline 95 % of control and 97 % of control | [11] 97 % of control | [12] 101 % of control and 87 % of control

O=[N+]([O-])c1ccc(S(=O)(=O)c2ccc([N+](=O)[O-])cc2)cc1
inactive: dose: 6.25 mg/kg/injection, schedule: Q04DX003 (ip), vehicle: suspension in saline 100 % of control | dose: 12.5 mg/kg/injection, schedule: Q04DX003 (ip), vehicle: suspension in saline 100 % of control | dose: 25.0 mg/kg/injection, schedule: Q04DX003 (ip), vehicle: suspension in saline 108 % of control | dose: 50.0 mg/kg/injection, schedule: Q04DX003 (ip), vehicle: suspension in saline 106 % of control

O=[N+]([O-])c1c(Cl)nc(-c2ccccc2)nc1Cl
inactive: dose: 6.25 mg/kg/injection, schedule: Q01DX005 (ip), vehicle: Klucel (hydroxypropylcellulose) (HPC) 101 % of control | dose: 12.5 mg/kg/injection, schedule: Q01DX005 (ip), vehicle: Klucel (hydroxypropylcellulose) (HPC) 93 % of control | dose: 25.0 mg/kg/injection, schedule: Q01DX005 (ip), vehicle: Klucel (hydroxypropylcellulose) (HPC) 100 % of control

O=S(=O)(CCCl)c1ccc2ccccc2c1
inactive: [9] 118 % of control and 90 % of control | [10] 114 % of control | dose: 50.0 mg/kg/injection, schedule: Q01DX009 (ip), vehicle: Klucel (hydroxypropylcellulose) (HPC) 106 % of control and 117 % of control

c1cc[n+](-[b-]2ccc3ccccc3c2)cc1
inactive: [1] 94 % of control | [2] 108 % of control | [3] 99 % of control

Cc1ccc(C)c(CCNC=O)c1
inactive: dose: 25.0 mg/kg/injection, schedule: Q01DX009 (ip), vehicle: saline with Tween-80 100 % of control | dose: 50.0 mg/kg/injection, schedule: Q01DX009 (ip), vehicle: saline with Tween-80 110 % of control | [7] 98 % of control | [8] 103 % of control

CP1(C)=NP(C)(C)=NP(C)(C)=NP(C)(C)=N1.[Cl][Pt]([Cl])([Cl])[Cl]
inactive: dose: 6.25 mg/kg/injection, schedule: Q04DX003 (ip), vehicle: saline with Tween-80 106 % of control | dose: 12.5 mg/kg/injection, schedule: Q04DX003 (ip), vehicle: saline with Tween-80 106 % of control and 107 % of control | dose: 25.0 mg/kg/injection, schedule: Q04DX003 (ip), vehicle: saline with Tween-80 110 % of control | dose: 50.0 mg/kg/injection, schedule: Q04DX003 (ip), vehicle: saline with Tween-80 120 % of control and 122 % of control | dose: 100.0 mg/kg/injection, schedule: Q04DX003 (ip), vehicle: saline with Tween-80 118 % of control

Cc1[nH]c2c(ccc3c2ccc2c(=O)c(C)c(C)[nH]c23)c(=O)c1C
inactive: [4] 95 % of control | [5] 96 % of control | [6] 95 % of control
